{"source": "PubChem BioAssay AID2060620", "about": "(Molecular Pharmacology Branch, DTP, NCI, 2025);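 further: spheroids exposed to the agents for 7 days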", "test_system": "328373-195-R-J1-PDC complex spheroids, viability % test/control", "test": "Anticancer human tumor 328373-195-R-J1-PDC patient-derived head and neck squamous carcinoma cell line growth inhibition [CLK]", "conditions": "for IC50: curve of first compound; for viability, T/C: stronger effect = lower value", "summary_of_the_method": "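Multi-cell-type spheroids combined patient-derived tumor cells with HUVEC endothelial cells and human mesenchymal stem cells. Paired agents were dosed in half-log steps down from about clinical Cmax, or from 10 microM where Cmax was unknown.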", "key": {"[1]": {"conditions": "second compound 0.0316 µM, first compound 0.0316 µM"}, "[2]": {"conditions": "second compound 0.0316 µM, first compound 0.1 µM"}, "[3]": {"conditions": "second compound 0.0316 µM, first compound 0.316 µM"}, "[4]": {"conditions": "second compound 0.0316 µM, first compound 1 µM"}, "[5]": {"conditions": "second compound 0.0316 µM, first compound 3.16 µM"}, "[6]": {"conditions": "second compound 0.0316 µM, first compound 10 µM"}, "[7]": {"conditions": "second compound 0.1 µM, first compound 0.0316 µM"}, "[8]": {"conditions": "second compound 0.1 µM, first compound 0.1 µM"}, "[9]": {"conditions": "second compound 0.1 µM, first compound 0.316 µM"}, "[10]": {"conditions": "second compound 0.1 µM, first compound 1 µM"}, "[11]": {"conditions": "second compound 0.1 µM, first compound 3.16 µM"}, "[12]": {"conditions": "second compound 0.1 µM, first compound 10 µM"}, "[13]": {"conditions": "second compound 0.316 µM, first compound 0.0316 µM"}, "[14]": {"conditions": "second compound 0.316 µM, first compound 0.1 µM"}, "[15]": {"conditions": "second compound 0.316 µM, first compound 0.316 µM"}, "[16]": {"conditions": "second compound 0.316 µM, first compound 1 µM"}, "[17]": {"conditions": "second compound 0.316 µM, first compound 3.16 µM"}, "[18]": {"conditions": "second compound 0.316 µM, first compound 10 µM"}, "[19]": {"conditions": "second compound 1 µM, first compound 0.0316 µM"}, "[20]": {"conditions": "second compound 1 µM, first compound 0.1 µM"}, "[21]": {"conditions": "second compound 1 µM, first compound 0.316 µM"}, "[22]": {"conditions": "second compound 1 µM, first compound 1 µM"}, "[23]": {"conditions": "second compound 1 µM, first compound 3.16 µM"}, "[24]": {"conditions": "second compound 1 µM, first compound 10 µM"}, "[25]": {"conditions": "second compound 3.16 µM, first compound 0.0316 µM"}, "[26]": {"conditions": "second compound 3.16 µM, first compound 0.1 µM"}, "[27]": {"conditions": "second compound 3.16 µM, first compound 0.316 µM"}, "[28]": {"conditions": "second compound 3.16 µM, first compound 1 µM"}, "[29]": {"conditions": "second compound 3.16 µM, first compound 3.16 µM"}, "[30]": {"conditions": "second compound 3.16 µM, first compound 10 µM"}, "[31]": {"conditions": "second compound 10 µM, first compound 0.0316 µM"}, "[32]": {"conditions": "second compound 10 µM, first compound 0.1 µM"}, "[33]": {"conditions": "second compound 10 µM, first compound 0.316 µM"}, "[34]": {"conditions": "second compound 10 µM, first compound 1 µM"}, "[35]": {"conditions": "second compound 10 µM, first compound 3.16 µM"}, "[36]": {"conditions": "second compound 10 µM, first compound 10 µM"}}, "data": [{"smiles": "CC1COCCN1c1cc(C2(S(C)(=N)=O)CC2)nc(-c2ccnc3[nH]ccc23)n1", "note": "(centres undefined) + CNC(=O)c1ccc(Nc2nc(OC3CCCC3)c3c(-c4ccc5nc(C)oc5c4)c[nH]c3n2)c(OC)c1", "values": [{"measurement": "IC50", "setting": "second compound 0.0316 µM", "value": 216, "unit": "nM"}, {"measurement": "IC50", "setting": "second compound 0.1 µM", "value": "< 31.6", "unit": "nM"}, {"measurement": "IC50", "setting": "second compound 0.316 µM", "value": "< 31.6", "unit": "nM"}, {"measurement": "IC50", "setting": "second compound 1 µM", "value": "< 31.6", "unit": "nM"}, {"measurement": "IC50", "setting": "second compound 3.16 µM", "value": "< 31.6", "unit": "nM"}, {"measurement": "IC50", "setting": "second compound 10 µM", "value": "< 31.6", "unit": "nM"}, {"measurement": "viability, T/C", "setting": "[1]", "value": 64.5, "unit": "%"}, {"measurement": "viability, T/C", "setting": "[2]", "value": 54.4, "unit": "%"}, {"measurement": "viability, T/C", "setting": "[3]", "value": 45.9, "unit": "%"}, {"measurement": "viability, T/C", "setting": "[4]", "value": 39.2, "unit": "%"}, {"measurement": "viability, T/C", "setting": "[5]", "value": 18.9, "unit": "%"}, {"measurement": "viability, T/C", "setting": "[6]", "value": 5.59, "unit": "%"}, {"measurement": "viability, T/C", "setting": "[7]", "value": 13.4, "unit": "%"}, {"measurement": "viability, T/C", "setting": "[8]", "value": 10.1, "unit": "%"}, {"measurement": "viability, T/C", "setting": "[9]", "value": 8.26, "unit": "%"}, {"measurement": "viability, T/C", "setting": "[10]", "value": 9.68, "unit": "%"}, {"measurement": "viability, T/C", "setting": "[11]", "value": 5.72, "unit": "%"}, {"measurement": "viability, T/C", "setting": "[12]", "value": 3.41, "unit": "%"}, {"measurement": "viability, T/C", "setting": "[13]", "value": 9.78, "unit": "%"}, {"measurement": "viability, T/C", "setting": "[14]", "value": 9.55, "unit": "%"}, {"measurement": "viability, T/C", "setting": "[15]", "value": 8.53, "unit": "%"}, {"measurement": "viability, T/C", "setting": "[16]", "value": 6.94, "unit": "%"}, {"measurement": "viability, T/C", "setting": "[17]", "value": 5.01, "unit": "%"}, {"measurement": "viability, T/C", "setting": "[18]", "value": 4.53, "unit": "%"}, {"measurement": "viability, T/C", "setting": "[19]", "value": 8.51, "unit": "%"}, {"measurement": "viability, T/C", "setting": "[20]", "value": 8.26, "unit": "%"}, {"measurement": "viability, T/C", "setting": "[21]", "value": 8.32, "unit": "%"}, {"measurement": "viability, T/C", "setting": "[22]", "value": 6.7, "unit": "%"}, {"measurement": "viability, T/C", "setting": "[23]", "value": 5.13, "unit": "%"}, {"measurement": "viability, T/C", "setting": "[24]", "value": 2.61, "unit": "%"}, {"measurement": "viability, T/C", "setting": "[25]", "value": 10.1, "unit": "%"}, {"measurement": "viability, T/C", "setting": "[26]", "value": 10.7, "unit": "%"}, {"measurement": "viability, T/C", "setting": "[27]", "value": 8.57, "unit": "%"}, {"measurement": "viability, T/C", "setting": "[28]", "value": 7.75, "unit": "%"}, {"measurement": "viability, T/C", "setting": "[29]", "value": 4.82, "unit": "%"}, {"measurement": "viability, T/C", "setting": "[30]", "value": 2.48, "unit": "%"}, {"measurement": "viability, T/C", "setting": "[31]", "value": 12.3, "unit": "%"}, {"measurement": "viability, T/C", "setting": "[32]", "value": 10.4, "unit": "%"}, {"measurement": "viability, T/C", "setting": "[33]", "value": 8.76, "unit": "%"}, {"measurement": "viability, T/C", "setting": "[34]", "value": 8.59, "unit": "%"}, {"measurement": "viability, T/C", "setting": "[35]", "value": 5.88, "unit": "%"}, {"measurement": "viability, T/C", "setting": "[36]", "value": 2.34, "unit": "%"}]}, {"smiles": "O=C(c1cc(Cc2n[nH]c(=O)c3ccccc23)ccc1F)N1CCN(C(=O)C2CC2)CC1", "note": "+ CNC(=O)c1ccc(Nc2nc(OC3CCCC3)c3c(-c4ccc5nc(C)oc5c4)c[nH]c3n2)c(OC)c1", "values": [{"measurement": "IC50", "setting": "second compound 0.0316 µM", "value": "> 10000", "unit": "nM"}, {"measurement": "IC50", "setting": "second compound 0.1 µM", "value": "< 31.6", "unit": "nM"}, {"measurement": "IC50", "setting": "second compound 0.316 µM", "value": "< 31.6", "unit": "nM"}, {"measurement": "IC50", "setting": "second compound 1 µM", "value": "< 31.6", "unit": "nM"}, {"measurement": "IC50", "setting": "second compound 3.16 µM", "value": "< 31.6", "unit": "nM"}, {"measurement": "IC50", "setting": "second compound 10 µM", "value": "< 31.6", "unit": "nM"}, {"measurement": "viability, T/C", "setting": "[1]", "value": 69.1, "unit": "%"}, {"measurement": "viability, T/C", "setting": "[2]", "value": 62.5, "unit": "%"}, {"measurement": "viability, T/C", "setting": "[3]", "value": 62.2, "unit": "%"}, {"measurement": "viability, T/C", "setting": "[4]", "value": 59.1, "unit": "%"}, {"measurement": "viability, T/C", "setting": "[5]", "value": 70.7, "unit": "%"}, {"measurement": "viability, T/C", "setting": "[6]", "value": 52.3, "unit": "%"}, {"measurement": "viability, T/C", "setting": "[7]", "value": 13.8, "unit": "%"}, {"measurement": "viability, T/C", "setting": "[8]", "value": 13.1, "unit": "%"}, {"measurement": "viability, T/C", "setting": "[9]", "value": 9.71, "unit": "%"}, {"measurement": "viability, T/C", "setting": "[10]", "value": 12.3, "unit": "%"}, {"measurement": "viability, T/C", "setting": "[11]", "value": 13.5, "unit": "%"}, {"measurement": "viability, T/C", "setting": "[12]", "value": 11.3, "unit": "%"}, {"measurement": "viability, T/C", "setting": "[13]", "value": 10.8, "unit": "%"}, {"measurement": "viability, T/C", "setting": "[14]", "value": 11.1, "unit": "%"}, {"measurement": "viability, T/C", "setting": "[15]", "value": 11.7, "unit": "%"}, {"measurement": "viability, T/C", "setting": "[16]", "value": 9.06, "unit": "%"}, {"measurement": "viability, T/C", "setting": "[17]", "value": 11.2, "unit": "%"}, {"measurement": "viability, T/C", "setting": "[18]", "value": 10.3, "unit": "%"}, {"measurement": "viability, T/C", "setting": "[19]", "value": 10.3, "unit": "%"}, {"measurement": "viability, T/C", "setting": "[20]", "value": 10, "unit": "%"}, {"measurement": "viability, T/C", "setting": "[21]", "value": 9.23, "unit": "%"}, {"measurement": "viability, T/C", "setting": "[22]", "value": 12, "unit": "%"}, {"measurement": "viability, T/C", "setting": "[23]", "value": 12.6, "unit": "%"}, {"measurement": "viability, T/C", "setting": "[24]", "value": 9.55, "unit": "%"}, {"measurement": "viability, T/C", "setting": "[25]", "value": 11.4, "unit": "%"}, {"measurement": "viability, T/C", "setting": "[26]", "value": 11.2, "unit": "%"}, {"measurement": "viability, T/C", "setting": "[27]", "value": 10, "unit": "%"}, {"measurement": "viability, T/C", "setting": "[28]", "value": 11.5, "unit": "%"}, {"measurement": "viability, T/C", "setting": "[29]", "value": 14.2, "unit": "%"}, {"measurement": "viability, T/C", "setting": "[30]", "value": 9.92, "unit": "%"}, {"measurement": "viability, T/C", "setting": "[31]", "value": 11.5, "unit": "%"}, {"measurement": "viability, T/C", "setting": "[32]", "value": 13.2, "unit": "%"}, {"measurement": "viability, T/C", "setting": "[33]", "value": 13.2, "unit": "%"}, {"measurement": "viability, T/C", "setting": "[34]", "value": 9.97, "unit": "%"}, {"measurement": "viability, T/C", "setting": "[35]", "value": 15.8, "unit": "%"}, {"measurement": "viability, T/C", "setting": "[36]", "value": 12.4, "unit": "%"}]}]}
